In US12064509B2, “Enema for rectal application” (Dr. Falk Pharma GmbH, priority 2015, dated 2024):

Columns and labels:
[1] = tested on: patients with active ulcerative colitis; assay: Placebo-controlled randomized double-blind multicenter parallel group comparative study (Japic CTI-132294), rectal budesonide foam; type: in vivo, human
Experimental: Dose responsiveness, efficacy and safety are investigated for patients with active ulcerative colitis when budesonide 2 mg is rectally administered once a day or twice a day for 6 weeks by a double-blind comparative study with placebo as a control (clinical trial number: Japic CTI-132294). For the trial, an aerosol with fixed dose injection type for rectal injection (rectal foaming agent) is used as a test drug, in which 25 mL (1.35 g) of white creamy foam containing 2 mg of budesonide is released by one injection. As a remission induction therapeutic agent of ulcerative colitis in active phase where the lesion is confined to the rectum and sigmoid colon, the aerosol for rectal injection is approved in Europe at a dosage and dose of budesonide 2 mg once a day (trade name: Budenofalk 2 mg/dose rectal foam, manufactured by Dr. Falk Pharma GmbH). […] The subjects are ulcerative colitis patients in active phase, and are divided into a group administered the test drug once a day (hereinafter, once a day group, 54 cases), a group administered the test drug twice a day (hereafter, twice a day group, 55 cases), and a group administered the control drug (hereinafter, placebo group, 56 cases). The test drug or control drug is rectally administered twice a day (once in the morning and once in the evening), after defecation, if possible. However, for the once a day group of test drug, a control drug is administered in the morning and a test drug is administered in the evening. The number of injections per dose is one, the administration period is 6 weeks, and the drug is administered until the evening before the evaluation. The dose of budesonide in each group is 2 mg/day for the once a day group, 4 mg/day for the twice a day group, and 0 mg/day for the placebo group. Furthermore, in order to exclude patients whose symptoms improve due to the action of rectal administration (improvement example due to placebo effect) or patients who develop complaints resulting from rectal administration, a pre-observation period in which the control drug is administered twice a day (once in the morning and once in the evening) for one week under a single-blind test is set prior to this administration. […] The point estimate of the odds ratio for the placebo group (95% confidence interval on both sides) in the logistic regression model with model as main effect model, remission rate as objective variable, and administration group and assignment factor as explanatory variables is 3.994 (1.734 to 9.711) in the once a day group, and 3.674 (1.594 to 8.930) in the twice a day group. The lower limit value of 95% confidence interval on both sides exceeds 1 in both groups. […] In addition, the difference point estimate (95% confidence interval on both sides) from the placebo group is 22.8% (4.3% to 39.3%) in the once a day group, 30.5% (12.3% 46.0%) in the twice a day group. Significant differences are observed in the once a day group and twice a day group as compared with the placebo group. The results are illustrated in Table 1 and FIG. 1. In the table and figure, “budesonide once a day administration group” illustrates the result of once a day group, and “budesonide twice a day administration group” illustrates the result of twice a day group, respectively. Patients with MMDAI endoscopic score of 0 are evaluated as mucosal healing. […] In addition, the difference point estimate (95% confidence interval on both sides) from the placebo group is 18.1% (4.8% to 31.3%) in the once a day group, 40.9% (25.2% to 54.2%) in the twice a day group. Significant differences are observed in the once a day group and twice a day group as compared with the placebo group. […]

[2] = tested on: patients with active ulcerative colitis; assay: as above; type: in vivo, human; remark: listed apart in the source
[3] = 2 mg once or twice a day, 6 weeks
[4] = budesonide 2 mg once a day, 6 weeks
[5] = budesonide 2 mg twice a day, 6 weeks
[6] = once a day group, 55 analysis target cases
[7] = twice a day group, 56 analysis target cases

CCCC1O[C@@H]2C[C@H]3[C@@H]4CCC5=CC(=O)C=C[C@]5(C)[C@H]4[C@@H](O)C[C@]3(C)[C@]2(C(=O)CO)O1 (mixture of isomers) [Budesonide, (+)-[(RS)-16α,17α-Butylidenedioxy-11β,21-dihydroxy-1,4-pregnadiene-3,20-dione]]
adverse events due to administration of the test drug [1, 3]: serum cortisol decrease and serum corticotropin decrease occurs
serious adverse events or severe adverse events [1, 3]: are not occurred
incidence of adverse events, twice a day group compared with once a day group ([1]; 2 mg per dose, 6 weeks): increased
tolerability to patients of ulcerative colitis ([1]; 2 mg rectal administration once a day or twice a day for 6 weeks): acceptable
mucosal healing rate (proportion of subjects with MMDAI endoscopic score of 0) [1, 4]: 23.6%
mucosal remission rate (proportion of subjects with MMDAI endoscopic score of 1 or less) [1, 4]: 69.1%
remission rate (MMDAI: bloody stool score 0, endoscopic score 1 or less, stool frequency score 0 or decrease of 1 point or more from week 0) ([1]; budesonide 2 mg rectal foam once a day, 6 weeks): 50.9%
remission rate (MMDAI: bloody stool score 0, endoscopic score 1 or less, stool frequency score 0 or decrease of 1 point or more from week 0) ([1]; budesonide 2 mg rectal foam twice a day, 6 weeks): 48.2%
mucosal healing rate (proportion of subjects with MMDAI endoscopic score of 0) [1, 5]: 46.4%
mucosal remission rate (proportion of subjects with MMDAI endoscopic score of 1 or less) [1, 5]: 76.8%
mucosal healing rate, point estimate of proportion difference from placebo group ([1]; once a day group, 6 weeks): 18.1%
mucosal remission rate, point estimate of proportion difference from placebo group ([1]; once a day group, 6 weeks): 22.8%
point estimate of the odds ratio versus the placebo group, mucosal healing rate (logistic regression) ([1]; once a day group, 6 weeks): 5.143
point estimate of the odds ratio versus the placebo group, remission rate (logistic regression) ([1]; once a day group, 6 weeks): 3.994
incidence of adverse events related to glucocorticoids ([1]; twice a day group compared with once a day group): increase in the incidence of adverse events related to glucocorticoids is not observed
mucosal healing rate, point estimate of proportion difference from placebo group ([1]; twice a day group, 6 weeks): 40.9%
mucosal remission rate, point estimate of proportion difference from placebo group ([1]; twice a day group, 6 weeks): 30.5%
point estimate of the odds ratio versus the placebo group, mucosal healing rate (logistic regression) ([1]; twice a day group, 6 weeks): 15.553
point estimate of the odds ratio versus the placebo group, remission rate (logistic regression) ([1]; twice a day group, 6 weeks): 3.674
Case (subjects in mucosal remission, endoscopic score 1 or less) [2, 6]: 38
Case (subjects with mucosal healing, endoscopic score 0) [2, 6]: 13
Case (subjects in mucosal remission, endoscopic score 1 or less) [2, 7]: 43
Case (subjects with mucosal healing, endoscopic score 0) [2, 7]: 26
